Measured values from US20030004172A1, “Fused pyrimidinone matrix metalloproteinase inhibitors” (priority 2001, published 2003).

These compounds were tested against MMP-13CD (catalytic domain of collagenase-3) (Homo sapiens, UniProt P45452) (assay: Thiopeptolide substrate hydrolysis inhibition assay, MMP-13CD). Settings: Table I; thiopeptolide substrate, HEPES pH 7.0, 22° C.; read-out: MMP-13CD IC50.
Assay type: biochemical
Text: Thiopeptolide substrates show virtually no decomposition or hydrolysis at or below neutral pH in the absence of a matrix metalloproteinase enzyme.

| Compound | IC50 [nM] |
| --- | --- |
| COc1cccc(CNC(=O)c2cc3c(=O)n(Cc4ccc(OC(F)(F)F)cc4)c(=O)n(C)c3s2)c1 [Example 83, 1-Methyl-2,4-dioxo-3-(4-trifluoromethoxy-benzyl)-1,2,3,4-tetrahydro-thieno[2,3-d]pyrimidine-6-carboxylic acid 3-methoxy-benzylamide] | 140 |
| COc1cccc(CNC(=O)c2cc3c(=O)n(CC4CCCCC4)c(=O)n(C)c3s2)c1 [Example 69, 3-Cylcohexylmethyl-1-methyl-2,4-dioxo-1,2,3,4-tetrahydro-thieno[2,3-d]pyrimidine-6-carboxylic acid-3methoxy-benzylamide] | 57 |
| Cn1c(=O)n(Cc2ccccc2)c(=O)c2cc(C(=O)OCc3ccccc3C(F)(F)F)sc21 [Example 169, 3-Benzyl-1-methyl-2,4-dioxo-1,2,3,4-tetrahydro-thieno[2,3-d]pyrimidine-6-carboxylic acid 2-trifluoromethyl-benzyl ester] | 30000 |
| CC(C)Cn1c(=O)c2cc(C(=O)OCc3ccccc3)sc2n(C)c1=O [Example 135, 3-Isobutyl-1-methyl-2,4-dioxo-1,2,3,4-tetrahydro-thieno[2,3-d]pyrimidine-6-carboxylic acid benzyl ester] | 86 |
| 3-(4-Carboxy-benzyl)-1-methyl-2,4-dioxo-1,2,3,4-tetrahydro-thieno[2,3-d]pyrimidine-6-carboxylic acid 2-ethoxy-benzyl ester [Example 319] | 8000 |
| CCC(C)Cn1c(=O)c2cc(C(=O)OCc3ccccc3)sc2n(C)c1=O (stereo not shown) [Example 120, 1-Methyl-3-(2-methyl-butyl)-2,4-dioxo-1,2,3,4-tetrahydro-thieno[2,3-d]pyrimidine-6-carboxylic acid benzyl ester] | 130 |
| COc1ccc(CNC(=O)c2cc3c(=O)n(Cc4ccc(C#N)cc4)c(=O)n(C)c3s2)cc1 [Example 64, 3-(4-Cyano-benzyl)-1-methyl-2,4-dioxo-1,2,3,4-tetrahydro-thieno[2,3-d]pyrimidine-6-carboxylic acid 4-methoxy-benzylamide] | 62 |
| Cn1c(=O)n(Cc2cccc(C(F)(F)F)c2)c(=O)c2cc(C(=O)OCc3ccccc3)sc21 [Example 110, 1-Methyl-2,4-dioxo-3-(3-trifluoromethyl-benzyl)-1,2,3,4-tetrahydro-thieno[2,3-d]pyrimidine-6-carboxylic acid benzyl ester] | 420 |
| COc1cccc(COC(=O)c2cc3c(=O)n(Cc4ccc(-c5nn[nH]n5)cc4)c(=O)[nH]c3s2)c1 [Example 67, 2,4-Dioxo-3-[4-(2H-tetrazol-4-yl)-benzyl]-1,2,3,4-tetrahydro-thieno[2,3-d]pyrimidine-6-carboxylic acid 3-methoxy-benzyl ester] | 1.68 |
| Cn1c(=O)n(Cc2ccc(C(=O)O)cc2)c(=O)c2cc(C(=O)NCc3ccc(S(N)(=O)=O)cc3)sc21 [Example 59, 4-[1-Methyl-2,4-dioxo-6-(4-sulfamoyl-benzylcarbamoyl)-1,4-dihydro-2H-thieno[2,3-d]pyrimidin-3-ylmethyl]-benzoic acid] | 2000 |
| Cn1c(=O)n(CN2C(=O)c3ccccc3C2=O)c(=O)c2cc(C(=O)OCc3ccccc3)sc21 [Example 117, 3-(1,3-Dioxo-1,3-dihydro-isoindol-2-ylmethyl)-1-methyl-2,4-dioxo-1,2,3,4-tetrahydro-thieno[2,3-d]pyrimidine-6-carboxylic acid benzyl ester] | 36 |
| Cn1c(=O)n(CCOc2ccccc2)c(=O)c2cc(C(=O)OCc3ccccc3)sc21 [Example 133, 1-Methyl-2,4-dioxo-3-(2-phenoxy-ethyl)-1,2,3,4-tetrahydro-thieno[2,3-d]pyrimidine-6-carboxylic acid benzyl ester] | 74 |
| Cn1c(=O)n(Cc2ccc(-c3nnn[nH]3)cc2)c(=O)c2cc(C(=O)NCc3ccc(F)cc3)sc21 [Example 87, 1-Methyl-2,4-dioxo-3-[4-(1H-tetrazol-5-yl)-benzyl]-1,2,3,4-tetrahydro-thieno[2,3-d]pyrimidine-6-carboxylic acid 4-fluoro-benzylamide] | 18.5 |
| Cn1c(=O)n(Cc2ccccc2)c(=O)c2cc(C(=O)OCCCc3cccnc3)sc21 [Example 164, 3-Benzyl-1-methyl-2,4-dioxo-1,2,3,4-tetrahydro-thieno[2,3-d]pyrimidine-6-carboxylic acid 3-pyridin-3-yl-propyl ester] | 69000 |
| Cn1c(=O)n(Cc2ccccc2)c(=O)c2cc(C(=O)OCc3ccc([N+](=O)[O-])cc3)sc21 [Example 179, 3-Benzyl-1-methyl-2,4-dioxo-1,2,3,4-tetrahydro-thieno[2,3-d]pyrimidine-6-carboxylic acid 4-nitro-benzyl ester] | 250 |
| Cn1c(=O)n(Cc2ccccc2)c(=O)c2cc(C(=O)OCc3c(F)c(F)c(F)c(F)c3F)sc21 [Example 72, 3-Benzyl-1-methyl-2,4-dioxo-1,2,3,4-tetrahydro-thieno[2,3-d]pyrimidine-6-carboxylic acid pentafluorophenylmethyl ester] | > 100000 |

The remaining lines, values ahead:

| IC50 [nM] | Compound |
| --- | --- |
| 30000 | COc1cc(COC(=O)c2cc3c(=O)n(Cc4ccccc4)c(=O)n(C)c3s2)cc(OC)c1 [Example 183, 3-Benzyl-1-methyl-2,4-dioxo-1,2,3,4-tetrahydro-thieno[2,3-d]pyrimidine-6-carboxylic acid 3,5-dimethoxy-benzyl ester] |
| 1800 | COc1ccc(CNC(=O)c2cc3c(=O)n(CCC(=O)c4ccc(F)cc4)c(=O)n(C)c3s2)cc1 [Example 270] |
| 2000 | Cn1c(=O)n(Cc2ccccc2)c(=O)c2cc(C(=O)NCCc3c[nH]c4ccccc34)sc21 [Example 351, 3-Benzyl-1-methyl-2,4-dioxo-1,2,3,4-tetrahydro-thieno[2,3-d]pyrimidine-6-carboxylic acid[2-(1H-indol-3-yl)-ethyl]-amide] |
| 30000 | COc1ccc(Br)cc1COC(=O)c1cc2c(=O)n(Cc3ccccc3)c(=O)n(C)c2s1 [Example 196, 3-Benzyl-1-methyl-2,4-dioxo-1,2,3,4-tetrahydro-thieno[2,3-d]pyrimidine-6-carboxylic acid 5-bromo-2-methoxy-benzyl ester] |
| > 100000 | Cc1ccc(CCNC(=O)c2cc3c(=O)n(Cc4ccccc4)c(=O)n(C)c3s2)c(C)c1 [Example 362, 3-Benzyl-1-methyl-2,4-dioxo-1,2,3,4-tetrahydro-thieno[2,3-d]pyrimidine-6-carboxylic acid[2-(2,4-dimethyl-phenyl)-ethyl]-amide] |
| > 100000 | Cn1c(=O)n(Cc2ccccc2)c(=O)c2cc(C(=O)NCCc3ccncc3)sc21 [Example 325, 3-Benzyl-1-methyl-2,4-dioxo-1,2,3,4-tetrahydro-thieno[2,3-d]pyrimidine-6-carboxylic acid (2-pyridin-4-yl-ethyl)-amide] |
| 55.5 | COC(=O)c1ccc(Cn2c(=O)c3cc(C(=O)NCc4ccc(OC)cc4)sc3n(C)c2=O)cc1C [Example 238, 4-[6-(4-Methoxy-benzylcarbamoyl)-1-methyl-2,4-dioxo-1,4-dihydro-2H-thieno[2,3-d]pyrimidin-3-ylmethyl]-2-methyl-benzoic acid methyl ester] |
| 38 | CCC#CCn1c(=O)c2cc(C(=O)NCc3ccc(OC)cc3)sc2n(C)c1=O [Example 265] |
| 1100 | COc1ccc(CNC(=O)c2cc3c(=O)n(CC=C(C)C)c(=O)n(C)c3s2)cc1 [Example 267] |
| > 100000 | Cc1c(C(=O)OCc2ccccc2)sc2[nH]c(=O)n(Cc3ccc(Br)cc3)c(=O)c12 [Example 301, 3-(4-Bromo-benzyl)-5-methyl-2,4-dioxo-1,2,3,4-tetrahydro-thieno[2,3-d]pyrimidine-6-carboxylic acid benzyl ester] |
| 120 | CCC#CCn1c(=O)c2cc(C(=O)NCc3cccc(OC)c3)sc2n(C)c1=O [Example 291] |
| 15000 | CCC(CC)n1c(=O)c2cc(C(=O)NCc3cccc(OC)c3)sc2n(C)c1=O [Example 290] |
| > 100000 | CC(CNC(=O)c1cc2c(=O)n(Cc3ccccc3)c(=O)n(C)c2s1)c1ccccc1 (stereo not shown) [Example 330, 3-Benzyl-1-methyl-2,4-dioxo-1,2,3,4-tetrahydro-thieno[2,3-d]pyrimidine-6-carboxylic acid (2-phenyl-propyl)-amide] |
| 30000 | Cn1c(=O)n(Cc2ccccc2)c(=O)c2cc(C(=O)NCCc3ccc(Cl)cc3Cl)sc21 [Example 363, 3-Benzyl-1-methyl-2,4-dioxo-1,2,3,4-tetrahydro-thieno[2,3-d]pyrimidine-6-carboxylic acid[2-(2,4-dichloro-phenyl)-ethyl]-amide] |
| > 100000 | Cn1c(=O)n(Cc2ccccc2)c(=O)c2cc(C(=O)OC3CCCc4ccccc43)sc21 (stereo not shown) [Example 198, 3-Benzyl-1-methyl-2,4-dioxo-1,2,3,4-tetrahydro-thieno[2,3-d]pyrimidine-6-carboxylic acid 1,2,3,4-tetrahydro-naphthalen-1-yl ester] |
| > 100000 | Cn1c(=O)n(Cc2ccccc2)c(=O)c2cc(C(=O)OCCC#N)sc21 [Example 209, 3-Benzyl-1-methyl-2,4-dioxo-1,2,3,4-tetrahydro-thieno[2,3-d]pyrimidine-6-carboxylic acid 2-cyano-ethyl ester] |
| 3800 | COc1ccc(CNC(=O)c2cc3c(=O)n(CCS(=O)(=O)c4ccccc4)c(=O)n(C)c3s2)cc1 [Example 227, 3-(2-Benzenesulfonyl-ethyl)-1-methyl-2,4-dioxo-1,2,3,4-tetrahydro-thieno[2,3-d]pyrimidine-6-carboxylic acid 4-methoxy-benzylamide] |
| 810 | COc1ccc(CNC(=O)c2cc3c(=O)n(C(C)c4ccccc4)c(=O)n(C)c3s2)cc1 (stereo not shown) [Example 253] |
| 180 | COC(=O)c1ccc(Cn2c(=O)c3cc(C(=O)NCc4cccc(OC)c4)sc3n(C)c2=O)cc1OC [Example 240, 2-Methoxy-4-[6-(3-methoxy-benzylcarbamoyl)-1-methyl-2,4-dioxo-1,4-dihydro-2H-thieno[2,3-d]pyrimidin-3-ylmethyl]-benzoic acid methyl ester] |
| 2700 | C=C(C)Cn1c(=O)c2cc(C(=O)NCc3cccc(OC)c3)sc2n(C)c1=O [Example 289] |
| 270 | CC/C=C/Cn1c(=O)c2cc(C(=O)NCc3cccc(OC)c3)sc2n(C)c1=O [Example 286] |
